Experimental data as given in ChEMBL document CHEMBL3124826, “Discovery of AMG 232, a potent, selective, and orally bioavailable MDM2-p53 inhibitor in clinical development” (J Med Chem, 2014).

Assay: Oral bioavailability in cynomolgus monkey
Format: ADME, organism-based, Macaca fascicularis
Conditions: in vivo

- bioavailability: 51%
Compound: CC(C)[C@@H](CS(=O)(=O)C(C)C)N1C(=O)[C@@](C)(CC(=O)O)C[C@H](c2cccc(Cl)c2)[C@H]1c1ccc(Cl)cc1 [NAVTEMADLIN]
